# Source: US20080194658A1, “Sterol Carrier Protein-2 Inhibitors for Lowering Cholesterol and Triglyceride Levels in Mammals” (priority 2006, published 2008)
# What was measured:
# [1] = Growth rate of young rats upon oral administration; format: in vivo; conditions: young rats starting at 20 days of age, 5 days/week at various dosages (FIG. 1)
# Description: FIG. 1 is a graph showing growth rates of young rats (starting at 20 days of age) upon oral administration of N-(4-{[4-(3,4-dichlorophenyl)-1,3-thiazol-2-yl]amino}phenyl)acetamide hydrobromide, whereby the effect on growth rate was insignificant, whereby the drug was administered 5 days/week at various dosages, whereby weight was measured every day during the treatment regimen (Monday-Friday), whereby the data is shown in three groups to compensate for variations in growth rate as the animals aged, whereby the listed days represent the number of days after the initial first administration, and whereby the bars represent the average growth rate±Standard deviation.
# Mammalian species (i.e., rats) were used. Rats were fed a standard diet (3.5% fat, <0.02% cholesterol). Weaned rats were grouped into treated and controls. Rats were chosen as the testing animal so that 0.5 ml of blood samples could be taken for testing. Rats were anesthetized first in an induction chamber with isoflurane and oxygen (100%). Once anesthetized rats were positioned dorsally for the blood draw from the jugular or ventral tail vein. […]
# N-(4-{[4-(3,4-dichlorophenyl)-1,3-thiazol-2-yl]amino}phenyl)acetamide hydrobromide was mixed with DMSO (solvent) in increasing dosages, which were feed to laboratory rats. […] Daily observations were recorded concerning (i) weight changes and (ii) mortality. […]
# [2] = test system: rats; assay: Serum ALT levels in rats (liver function); format: in vivo; conditions: oral, various dosages for 5 days (FIG. 3)
# Description: (§1) Mammalian species (i.e., rats) were used. Rats were fed a standard diet (3.5% fat, <0.02% cholesterol). Weaned rats were grouped into treated and controls. Rats were chosen as the testing animal so that 0.5 ml of blood samples could be taken for testing. Rats were anesthetized first in an induction chamber with isoflurane and oxygen (100%). Once anesthetized rats were positioned dorsally for the blood draw from the jugular or ventral tail vein. An anesthetic nose-cone was placed on the nose of the rat allowing isoflurane and oxygen (100%) to be delivered through a Bain circuit. After obtaining blood, the rats were allowed to recover in a shoebox cage with a heat lamp positioned over the top of the cage. Once the rats were awake and moving freely around the recovery cage, they are placed back in their normal cages. Total time for procedure is ˜15-20 minutes per rat.
# (§2) N-(4-{[4-(3,4-dichlorophenyl)-1,3-thiazol-2-yl]amino}phenyl)acetamide hydrobromide was mixed with DMSO (solvent) in increasing dosages, which were feed to laboratory rats. Rats received the preparations via oral drops. Daily observations were recorded concerning (i) weight changes and (ii) mortality. […]
# The vertebrate SCP-2 is involved in cholesterol metabolism, therefore, cholesterol homeostasis is advantageously monitored when SCP-2 inhibitors are tested in mammalian species. […]
# [3] = test system: rats; assay: Total serum cholesterol levels in rats; format: in vivo, rat; conditions: oral, varying concentrations for 5 days, all treated animals (FIG. 2)
# Description: as §1
# as §2, with “mortality. Blood samples were taken every three weeks for testing cholesterol levels and for testing Alanine Aminotransferase (ALT) for liver function.” for “mortality.”
compound,measurement,setting,value
"Br.CC(=O)Nc1ccc(Nc2nc(-c3ccc(Cl)c(Cl)c3)cs2)cc1 [N-(4-{[4-(3,4-dichlorophenyl)-1,3-thiazol-2-yl]amino}phenyl)acetamide hydrobromide]",effect on growth rate,[1],insignificant
same,"serum ALT levels, control (0 mg/kg) vs treated animals",[2],no significant difference
same,total serum cholesterol levels,[3],significant decrease
